Assay results: patent US7998474B2, “Methods for treating an inflammatory disease of the bowel” (Rowett Research Institute, priority 2001, dated 2011)
Marks after values point to notes of the source that are not given here.

What was measured:
RelA [NF-κB p65] [1] = assay: Immunofluorescence localisation of RelA in Caco-2 cells; type: cell-based
PPARγ [2] = assay: Cellular distribution of PPARγ in Caco-2 cells (immunocytochemistry, western blot)
Caco-2 cells = assay: Inflammatory cytokine gene expression in Caco-2 cells exposed to S. enteritidis (macroarray, Northern, real-time PCR); type: cell-based
RelA [NF-κB p65] [3] = assay: Supershift EMSA on Caco-2 nuclear extracts; type: cell-based; settings: S. enteritidis, 2 hours, heat inactivation 70° C. 15 minutes
Procedure: Where indicated B. thetaiotaomicron was heat inactivated at 70° C. for 15 minutes prior to its addition to the Caco-2 cells.
Nuclear extracts were incubated with single stranded ^32P-labeled oligonucleotide probes containing consensus binding sequences for NF-κB (SEQ ID NO:1 5′-[…] -3′) or AP-1 (SEQ ID NO: 2 5′-[…] -3′), separated by electrophoresis and visualized by autoradiography. EMSA supershifts were performed using specific NF-κB subunit antibodies. Effects of B. thetaiotaomicron on NFκB and AP-1 signaling were determined by EMSA, western blotting (protein and phosphoprotein), promoter-specific reporter analysis and target gene expression (eg. fos and jun).

PPARγ [4] = assay: Northern hybridisation of PPAR mRNA in Caco-2 cells; type: cell-based; settings: 2 hours
NF-κB = NF-κB luciferase reporter in transfected Caco-2 cells; type: cell-based; settings: bacteria 2 hours, luciferase after 8 hours
Procedure: C) Caco-2 cells were transfected with PPARγ DN and a NF-κB luciferase reporter construct (DN), and compared with control cells transfected with NF-κB luciferase reporter alone (MOCK).
Double transfection studies with PPARγ DN and an NF-κB luciferase reporter (gifted by Dr Israel, Pasteur Institute, Paris, France) were performed. […] To avoid this we stimulated the cells for 2 hours and then removed the bacteria by washing and determined luciferase protein production after 8 hours. We found both in the control and PPARγ DN transfected cells, that S. enteritidis induced NF-κB activation and luciferase protein synthesis (P<0.001) (FIG. 5C). In the PPARγ wild type (NT) transfected cells (luciferase alone) this response was attenuated by B. thetaiotaomicron (P<0.028), but not in dominant negative (DN) transfected cells (FIG. 5C). Similarly, there was modification of the cellular distribution of RelA, as determined using immunocytochemistry and laser scanning confocal microscopy (LSCM), in cells transfected with green fluorescent protein (GFP) with and without PPARγ DN. In the control cells (GFP alone) the distribution of RelA was predominantly cytosolic as described above for non-transfected cells (FIG. 5D (insert B,C)). In PPARγ DN transfected cells, the distribution was irregular and RelA localised to both the cytosolic and nuclear compartments (FIG. 5D, (insert D, E)).

p38 MAP kinase = assay: Western blot of MAP kinase phosphorylation in Caco-2 cells; type: cell-based; settings: co-incubation
RelA = assay: Immunoprecipitation of RelA / PPARγ from Caco-2 cells; type: cell-based
Text: Immuno-precipitates were resolved using SDS-PAGE. Western blots were developed using a monoclonal anti-RelA [NF-κB p65], anti-PPARγ antibodies and anti-HDAC3 (Santa Cruz).
A) Immuno-detection RelA. Caco-2 cells prepared following standard culture protocol, treatment groups (1-4). Immunoprecipitates prepared using anti-PPARγ sepharose conjugate.

[5] = Viability of the bacterium in jelly; settings: commercial jelly prepared under anaerobic conditions, set at 4° C.
Procedure: Ten ml of B. thetaiotaomicron culture was centrifuged (2000 g, 12 min), the pellet was washed with 0.05M phosphate buffered saline pH 7.2 and then resuspended in commercial jelly [10 ml, 37° C., prepared under anaerobic conditions]. The jelly was poured into a sterile petri dish under CO2 and allowed to set at 4° C. Approximately 1 hour later, the jelly was cut into weighed amounts (0.5 g, ˜10^8 CFU B. thetaiotaomicron) and fed to the rats. The bacterium remained viable for at least 6 hours under these conditions. However, usually all jelly was eaten within a few minutes of being placed in the cage.

[6] = Body weight, tissue weights and composition, faecal output in rats; type: in vivo, Hooded Lister rats
Text: Twenty-four male specific pathogen-free Hooded Lister rats (40 g), bred in the small animal unit of the Rowett Research Institute, were weaned at 19 days and immediately transferred to a Class II facility. They were housed individually in metabolism cages (Techniplast, Kettering, UK) within flexi-film isolators (Moredun, Animal Health, Penicuik, UK) for the duration of the study (21 days). Nesting tunnels were provided in each metabolism cage and cages were arranged within the isolators to allow sight of but not contact with other animals. Sterile distilled water was available at all times. Rats were weighed daily and faeces was collected throughout the study.
Data are the means ISD (n=3). The rats were initially given free access to a high quality semi-synthetic (100 g protein kg^−1) lactalbumin-based diet (Grant et al, 2000). […] This was the average daily free intake observed for rats of the same age after oral infection with Salmonella enterica var. Enteritidis and around 70% of the free intake of this diet by non-infected animals. The rats were housed and managed in this manner from weaning to reduce environmental exposure to bacteria and cross-contamination post-weaning (Grant, 1996).
Twelve of the rats were given B. thetaiotaomicron (approximately 10^8 CFU) once daily from weaning (19d) through to completion of the study. At 34 days of age, six rats pre-treated with B. thetaiotaomicron and six controls were given, by gavage, a single dose of 0.8 ml of Salmonella serovar Enteritidis S1400 culture (approximately 10^9 CFU). The remaining rats were given the equivalent amount of culture medium. All rats were returned to their cages and fed lactalbumin-based diet (7 g rat^−1 day^−1) for a further 6 days. On the final day, the rats were fed 2 g of diet and were killed by halothane (Rhone Merieux, Essex, UK) overdose and exsanguination exactly two hours later. The abdomen was opened and tissues were aseptically removed. […]
DNA, RNA, protein were determined as before by the diphenylamine, orcinol and modified Lowry methods (Grant et al, 2000). […]

Myeloperoxidase (MPO) = Myeloperoxidase (MPO) activity in rat tissue; type: in vivo, Hooded Lister rats; settings: 6d post-infection, mean ± SD, n = 6
Procedure: Tissue samples were homogenised (1:80 w/v) in ice-cold 5 mM potassium phosphate buffer pH 6.0 using a Janke-Kunkel Ultra-Turrax T25 tissue homogeniser at 20,000 rev min^−1 for 30 seconds and centrifuged (3000 g×30 min, 4° C.). The pellet (1:20 w/v) was sonicated (3×5 sec) in ice-cold 0.5M potassium phosphate pH 6.0 containing hexadecyltrimethyl-ammonium bromide (HETAB, 5 g/l) and ethylenediaminetetraacetic acid (EDTA, 3.72 g/1), left on ice for 30 min and centrifuged (3000 g×30 min, 4° C.) [Stucchi et al, 2000]. The supernatant was frozen until assayed. Myeloperoxidase (MPO) activity was determined by monitoring H2O2 dependent oxidation of 3,3′,5,5′-tetramethylbenzidine (TMB, Dynex Technologies, Ashford, UK) in 50 mM potassium phosphate buffer pH 6.0 (Zimmerman and Granger, 1990). Absorbance at 450 nm was measured after termination of the reaction with 0.18M H2SO4. Human myeloperoxidase (Calbiochem, UK) was used as a standard and values were expressed as MPO equivalents.

Immunoreactive MPO = Immunoreactive MPO in intestinal contents or faeces (competitive ELISA); type: in vivo, Hooded Lister rats; settings: during 6d post-infection, mean ± SD, n = 6
Procedure: Immunoreactive MPO in intestinal contents or faeces was determined by a competitive ELISA method. Microtiter plates (Immulon 4, Dynex Technologies, Ashford, UK) were coated [10 ng/well] with human myeloperoxidase in 10 mM phosphate buffered saline pH 7.4 [PBS] overnight at 4° C. After washing [PBS containing Tween-20 (1 ml/l], plates were blocked with PBS containing bovine serum albumin (BSA, 10 g/l) for 1 hour at room temperature. Plates were washed and samples or standards added [50 μl/well] and serially diluted in PBS containing BSA (1 g/l), Tween-20 (1 ml/l) and leupeptin (1 mg/l). Rabbit anti-human myeloperoxidase antibody [Calbiochem, UK, 50 μl/well of 1:4000 dilution] was also added. The plates were incubated for 1 hour, washed and then reacted for 1 hour with biotinylated anti-rabbit IgG followed by Extravidin/peroxidase (EXTRA-3 kit, Sigma-Aldrich, Poole, UK). After washing, TMB reagent (7 μl/well) was added and incubated in the dark for up to 2 hours. The reaction was stopped by addition (50 μl/well) of 0.18M H2SO4 and the absorbance read at 450 nm. Values were expressed as immunoreactive MPO equivalents.

leukocyte-elastase = assay: Elastase in faeces or intestine contents; type: in vivo, Hooded Lister rats; settings: mean ± SD, n = 6
Procedure: Freeze dried faeces or intestine contents were extracted (1:10 w/v) in ice-cold 0.5M potassium phosphate pH 6.0 containing HETAB, EDTA and NaN3 (1 g/l), left on ice for 30 min, centrifuged (3000 g, 30 min, 4° C.) and the supernatants were frozen.
Sample or leukocyte-elastase (Sigma-Aldrich, Poole, UK) was serially diluted in 0.2M Tris HCl pH 8.0 containing 1 M NaCl and leupeptin (1 mg/l) on a microtiter plate. Substrate (N-succinyl-ala-ala-val-p-nitroanilide, 0.2 g/l, Sigma-Aldrich, Poole, UK) was added and the absorbance at 405 nm monitored immediately and at intervals up to 20 hours during incubation at 37° C. Values were expressed as leukocyte-elastase equivalents.

[7] = Skeletal (gastrocnemius) muscle accretion in rats; type: in vivo, Hooded Lister rats; settings: 6 d post-infection
Procedure: Gastrocnemius muscle is taken as representative of skeletal muscle and total skeletal muscle in young Hooded-Lister rats as approximately 47 times the weight of the gastrocnemius muscle (Bardocz et al, 1996). Initial weight of gastrocnemius muscles 804±10 mg wet weight [194±7 mg dry weight] per 100 g initial fresh body weight.
Further pieces of jejunum and ileum (15-25 cm from the pylorus and 15-25 cm from the ileo-caecal junction respectively) were collected and frozen in liquid nitrogen for biochemical analysis, as was the remaining small intestine tissue (˜40 cm), liver, spleen, kidney, thymus, lungs, heart and gastrocnemius hind-limb muscles. These were weighed, freeze-dried and reweighed.

IL-8 = IL-8 protein in culture supernatants (ELISA); settings: co-culture with S. enteritidis over 4 h (S. enteritidis alone 400 pg/ml)
S. enteritidis = S. enteritidis infection of minimal flora rats, MPO in ileal mucosa; settings: 10^8 cfu B. thetaiotaomicron in jelly for 19 days, then 10^8 S. enteritidis, 6 days post infection, P<0.001
human PMNs = assay: Transepithelial migration of PMN through Caco-2 monolayer (MPO assay); settings: Caco-2 Transwell, S. enteritidis, MPO readout
[8] = 800 nM for 4 hours, cells treated with S. enteritidis alone

Compound: CC(/C=C/C(=O)NO)=C\[C@@H](C)C(=O)c1ccc(N(C)C)cc1 [TSA, trichostatin A]
- p65 nuclear accumulation after HDAC inhibition (RelA [NF-κB p65] [1]; [8]): partial p65 accumulation
- Exit of PPARγ to cytosol after HDAC inhibition (PPARγ [2]; [8]): accelerated exit of PPARγ to cytosol
- PPARγ localisation in S. enteritidis-treated Caco-2 cells with inhibitor (PPARγ [2]; S. enteritidis-treated Caco-2 cells): induce punctate cytosolic labeling and export of PPARγ from the nucleus

Compound: Bacteroides thetaiotaomicron [BT]
- IL-10 gene expression (Caco-2 cells): not affected
- Induction of TNF-α, IL-8, MIP-2α and COX-2 expression following S. enteritidis exposure (Caco-2 cells; 10^8 S. enteritidis with 10^9 commensal bacteria, 2 hours): attenuated
- Translocation of RelA to the nucleus (RelA [NF-κB p65] [1]; Caco-2 cells, 10^8 S. enteritidis, 2 hours): abolish the translocation of RelA to the nucleus
- RelA response (supershift EMSA) (RelA [NF-κB p65] [3]): inhibited
- mRNA for PPARα and PPARγ (PPARγ [4]; Caco-2 cells exposed to S. enteritidis and B. thetaiotaomicron): decreased
- S. enteritidis induced NF-κB luciferase response, PPARγ dominant negative (DN) transfected cells (NF-κB): not
- S. enteritidis induced NF-κB luciferase response, PPARγ wild type cells (luciferase alone) (NF-κB; P<0.028): attenuated
- p38 phosphorylation induced by Salmonella (p38 MAP kinase): not modified
- HDAC3 association with RelA (RelA; Caco-2 cells co-cultured with S. enteritidis and B. thetaiotaomicron, 2 hours): promoted
- Co-purification of RelA with PPARγ (RelA; cells treated with S. enteritidis in the presence of B. thetaiotaomicron): co-purification of RelA
- Time the bacterium remained viable in jelly [5]: at least 6 hours
- Water content of small intestine ([6]; 6 d post-infection): 745 ± 24 mg/g
- Weight of Gastrocnemius muscles ([6]; 6d post-infection, mean ± SD, n = 6): 834 ± 22^a mg wet weight/100 g fresh body weight
- Adverse effect on gut or systemic metabolism ([6]; specific pathogen-free rats, daily B. thetaiotaomicron from weaning): no indications that B. thetaiotaomicron adversely affected gut or systemic metabolism
- Ileum (20 cm) MPO (Myeloperoxidase (MPO)): 33.1 ± 6.2^a μg
- Jejunum (20 cm) MPO (Myeloperoxidase (MPO)): 29.3 ± 5.2 µg
- Faeces MPO (Immunoreactive MPO): 2.6 ± 1.0^a μg/d
- Intestinal contents Elastase (leukocyte-elastase; 6d post-infection): 210 ± 0.38^a μg
- Faeces Elastase (leukocyte-elastase; during 6d post-infection): 5.7 ± 1.0^a μg/d
- Gastrocnemius muscle accretion rate, dry weight [7]: 4.2±1.0 mg dry weight per day
- Gastrocnemius muscle accretion rate, wet weight [7]: 17.0±4.2 mg wet weight per day
- IL-8 protein in culture supernatants (IL-8): 230 pg/mL
- Level of MPO in the ileal mucosa (S. enteritidis): significantly attenuated
- PMN recruitment in vitro (human PMNs): confirmed the anti-inflammatory activity
- Cellular distribution of PPARγ (PPARγ [2]; Caco-2 cells, co-culture of S. enteritidis with B. thetaiotaomicron): redistributed to the cytosol

Compound: CCC(=C/[C@H](C)C/C=C/C(C)=C/[C@@H](C)C(=O)[C@@H](C)[C@H](O)[C@@H](C)C/C(C)=C/C(=O)O)/C=C/[C@@H]1OC(=O)C=C[C@@H]1C [LMB, leptomycin B]
- RelA in nuclei after inhibition of CRM-1-dependent nuclear export (RelA [NF-κB p65] [1]; cells co-cultured with S. enteritidis and B. thetaiotaomicron): caused an accumulation of RelA in nuclei
- Nucleocytoplasmic shuttling of PPARγ induced by co-culture of S. enteritidis and B. thetaiotaomicron (PPARγ [2]; Caco-2 cells, inhibitor treatment): not blocked

Compound: CCCCC/C=C/C=C1/C(=O)C=C[C@@H]1C/C=C\CCCC(=O)O [15d-PGJ2, 15-deoxy-Δ^12,14-prostaglandin J2, reference compound]
- Activation of inflammatory cytokine expression (TNF-α, IL-8, COX-2) by S. enteritidis (Caco-2 cells; 10^8 S. enteritidis plus drug 10-30 μM, 2 hours, Northern): attenuated
- PPARγ mRNA after PPAR ligand (PPARγ [4]; Caco-2 cells, 10^8 S. enteritidis plus 30 μM ligand): decreased
